Laboratory results from PubChem BioAssay AID328 (DTP/NCI, 2004).
“And” between values parts separate entries of the source, which are not always exact repeats. Equal values may be shown once. Inconclusive results and toxic doses are left out. Rule for the calls: active = survival T/C of 150% or more; inactive = T/C below 125% in these data.

System: BDF1 mice, P388 leukemia ip, median survival T/C
Test: NCI In Vivo Anticancer Drug Screen. Data for tumor model P388 Leukemia (intraperitoneal) in B6D2F1 (BDF1) mice
Conditions: endpoint: median survival time, higher = longer survival
How it was run: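 Steps: implant the tumour, treat one group with compound and another with vehicle, record survival, then divide treated by control.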

[1] = dose: 100.0 mg/kg/injection, schedule: Q04DX003 (ip), vehicle: saline with Tween-80
[2] = dose: 200.0 mg/kg/injection, schedule: Q04DX003 (ip), vehicle: saline with Tween-80
[3] = dose: 200.0 mg/kg/injection, schedule: Q01DX009 (ip), vehicle: Klucel (hydroxypropylcellulose) (HPC)
[4] = dose: 400.0 mg/kg/injection, schedule: Q01DX009 (ip), vehicle: Klucel (hydroxypropylcellulose) (HPC)
[5] = dose: 50.0 mg/kg/injection, schedule: Q01DX009 (ip), vehicle: saline
[6] = dose: 100.0 mg/kg/injection, schedule: Q01DX009 (ip), vehicle: saline
[7] = dose: 25.0 mg/kg/injection, schedule: Q01DX009 (ip), vehicle: Klucel (hydroxypropylcellulose) (HPC)
[8] = dose: 50.0 mg/kg/injection, schedule: Q04DX003 (ip), vehicle: saline with Tween-80
[9] = dose: 400.0 mg/kg/injection, schedule: Q04DX003 (ip), vehicle: saline with Tween-80
[10] = dose: 100.0 mg/kg/injection, schedule: Q01DX009 (ip), vehicle: Klucel (hydroxypropylcellulose) (HPC)
[11] = dose: 100.0 mg/kg/injection, schedule: Q04DX003 (ip), vehicle: Klucel (hydroxypropylcellulose) (HPC)
[12] = dose: 200.0 mg/kg/injection, schedule: Q04DX003 (ip), vehicle: Klucel (hydroxypropylcellulose) (HPC)

Measured: T/C

COC(=O)C12OCC34C(CC(C(C)=O)C(C)(CC(=O)O)C3C(O)C1O)OC(=O)C(OC(=O)/C=C(\C)C(C)C)C24 (configuration not stated)
inactive: dose: 0.25 mg/kg/injection, schedule: Q01DX009 (ip), vehicle: saline 94 % of control | dose: 0.5 mg/kg/injection, schedule: Q01DX009 (ip), vehicle: saline 92 % of control | dose: 2.0 mg/kg/injection, schedule: Q01DX009 (ip), vehicle: saline 92 % of control | dose: 4.0 mg/kg/injection, schedule: Q01DX009 (ip), vehicle: saline 90 % of control

O=C(CC(=O)C(F)(F)F)c1ccc2c(c1)Cc1ccccc1-2
inactive: [1] 124 % of control | [2] 111 % of control

O=C(O)CCC(=O)Nc1cccc(Oc2ccc([N+](=O)[O-])cc2[N+](=O)[O-])c1
inactive: dose: 100.0 mg/kg/injection, schedule: Q04DX003 (ip), vehicle: other 95 % of control | [3] 113 % of control | dose: 200.0 mg/kg/injection, schedule: Q04DX003 (ip), vehicle: other 100 % of control | [4] 109 % of control | dose: 400.0 mg/kg/injection, schedule: Q04DX003 (ip), vehicle: other 100 % of control

ClCC1CCN(CCc2ccccc2)CC1
inactive: [5] 95 % of control | [6] 99 % of control

Nc1ccc(C(=O)Nc2ccc(Nc3ccncc3)cc2)c([N+](=O)[O-])c1
inactive: dose: 12.5 mg/kg/injection, schedule: Q01DX009 (ip), vehicle: saline 97 % of control | dose: 25.0 mg/kg/injection, schedule: Q01DX009 (ip), vehicle: saline 97 % of control | [5] 119 % of control | dose: 50.0 mg/kg/injection, schedule: Q04DX003 (ip), vehicle: saline 94 % of control | dose: 75.0 mg/kg/injection, schedule: Q01DX009 (ip), vehicle: saline 90 % of control | [6] 108 % of control | dose: 100.0 mg/kg/injection, schedule: Q04DX003 (ip), vehicle: saline 100 % of control | dose: 200.0 mg/kg/injection, schedule: Q01DX009 (ip), vehicle: saline 111 % of control | dose: 200.0 mg/kg/injection, schedule: Q04DX003 (ip), vehicle: saline 92 % of control | dose: 400.0 mg/kg/injection, schedule: Q01DX009 (ip), vehicle: saline 111 % of control | dose: 400.0 mg/kg/injection, schedule: Q04DX003 (ip), vehicle: saline 92 % of control

CCCCN=C(N)N=C(N)N
inactive: [5] 105 % of control | [6] 108 % of control

N#CCOC(=O)C1(NC(=O)c2ccccc2)CC1c1ccccc1 (configuration not stated)
inactive: dose: 25.0 mg/kg/injection, schedule: Q01DX005 (ip), vehicle: saline with Tween-80 95 % of control | dose: 50.0 mg/kg/injection, schedule: Q01DX005 (ip), vehicle: saline with Tween-80 90 % of control | dose: 100.0 mg/kg/injection, schedule: Q01DX005 (ip), vehicle: saline with Tween-80 92 % of control

CCOC(=O)C/C(C)=N/NC(=O)C(=O)N/N=C(\C)CC(=O)OCC
inactive: dose: 75.0 mg/kg/injection, schedule: Q01DX009 (ip), vehicle: saline with Tween-80 113 % of control | dose: 150.0 mg/kg/injection, schedule: Q01DX009 (ip), vehicle: saline with Tween-80 96 % of control | dose: 300.0 mg/kg/injection, schedule: Q01DX009 (ip), vehicle: saline with Tween-80 96 % of control

O=C1C(Cl)=C(N2CCOCC2)C(=O)c2ccccc21
inactive: dose: 6.25 mg/kg/injection, schedule: Q01DX009 (ip), vehicle: Klucel (hydroxypropylcellulose) (HPC) 118 % of control | dose: 12.5 mg/kg/injection, schedule: Q01DX009 (ip), vehicle: Klucel (hydroxypropylcellulose) (HPC) 108 % of control | [7] 114 % of control

C=CCCCCCC/C=C\CCCCC
inactive: dose: 50.0 mg/kg/injection, schedule: Q01DX010 (ip), vehicle: alcohol 104 % of control

c1ccc2c(c1)Sc1ccccc1N2Cc1cnc[nH]1
inactive: dose: 25.0 mg/kg/injection, schedule: Q04DX003 (ip), vehicle: saline with Tween-80 100 % of control | [8] 104 % of control | [1] 100 % of control | [2] 109 % of control

COc1ccccc1OCC(C)=O
inactive: dose: 178.0 mg/kg/injection, schedule: Q04DX003 (ip), vehicle: saline with Tween-80 104 % of control | dose: 266.0 mg/kg/injection, schedule: Q04DX003 (ip), vehicle: saline with Tween-80 104 % of control | [9] 114 % of control | dose: 600.0 mg/kg/injection, schedule: Q04DX003 (ip), vehicle: saline with Tween-80 104 % of control

CCOC(=O)C(C)NC(=O)N(C)C12CC3CC(CC(C3)C1)C2 (configuration not stated)
inactive: [10] 113 % of control | [3] 117 % of control | [4] 119 % of control

COc1ccc(CCNC(=O)Cc2ccccc2)cc1OC
inactive: dose: 100.0 mg/kg/injection, schedule: Q01DX009 (ip), vehicle: saline with Tween-80 95 % of control | [1] 109 % of control | dose: 200.0 mg/kg/injection, schedule: Q01DX009 (ip), vehicle: saline with Tween-80 90 % of control | [2] 100 % of control | dose: 400.0 mg/kg/injection, schedule: Q01DX009 (ip), vehicle: saline with Tween-80 100 % of control | [9] 100 % of control

OCCOCCN1CCN(CC/C=C2\c3ccccc3Sc3ccc(C(F)(F)F)cc32)CC1
inactive: dose: 0.75 mg/kg/injection, schedule: Q01DX009 (ip), vehicle: saline 95 % of control | dose: 1.5 mg/kg/injection, schedule: Q01DX009 (ip), vehicle: saline 90 % of control | dose: 3.0 mg/kg/injection, schedule: Q01DX009 (ip), vehicle: saline 95 % of control

Cc1cc(C)n(CO)n1
inactive: [7] 96 % of control | dose: 50.0 mg/kg/injection, schedule: Q01DX009 (ip), vehicle: Klucel (hydroxypropylcellulose) (HPC) 107 % of control | [11] 108 % of control | [12] 100 % of control

O=C1CCC23/C=C/C(=O)NCCCCNCCCNC(=O)/C=C/c4ccc(c2c4)OC3C1 (configuration not stated)
inactive: [8] 105 % of control | [1] 105 % of control | [2] 105 % of control

CCOC(=O)Nc1nc(NC(=O)OCC)c(Cl)nc1Cl
inactive: dose: 12.5 mg/kg/injection, schedule: Q01DX009 (ip), vehicle: water 113 % of control | dose: 12.5 mg/kg/injection, schedule: Q04DX003 (ip), vehicle: water 90 % of control and 104 % of control | dose: 25.0 mg/kg/injection, schedule: Q01DX009 (ip), vehicle: water 99 % of control | dose: 25.0 mg/kg/injection, schedule: Q04DX003 (ip), vehicle: water 92 % of control and 104 % of control | dose: 50.0 mg/kg/injection, schedule: Q01DX009 (ip), vehicle: water 111 % of control | dose: 50.0 mg/kg/injection, schedule: Q04DX003 (ip), vehicle: water 102 % of control | dose: 100.0 mg/kg/injection, schedule: Q01DX009 (ip), vehicle: water 99 % of control | dose: 100.0 mg/kg/injection, schedule: Q04DX003 (ip), vehicle: water 100 % of control and 101 % of control | dose: 200.0 mg/kg/injection, schedule: Q01DX009 (ip), vehicle: water 90 % of control | dose: 200.0 mg/kg/injection, schedule: Q04DX003 (ip), vehicle: water 94 % of control and 96 % of control | dose: 400.0 mg/kg/injection, schedule: Q01DX009 (ip), vehicle: water 101 % of control | dose: 400.0 mg/kg/injection, schedule: Q04DX003 (ip), vehicle: water 112 % of control | dose: 500.0 mg/kg/injection, schedule: Q04DX003 (ip), vehicle: water 96 % of control

COc1cc(Br)c2c(c1OC)C(=O)CC2
inactive: [10] 104 % of control | [11] 100 % of control | [3] 95 % of control | [12] 91 % of control | [4] 100 % of control | dose: 400.0 mg/kg/injection, schedule: Q04DX003 (ip), vehicle: Klucel (hydroxypropylcellulose) (HPC) 95 % of control
